Entries after “also recorded” stand apart in the source; their conditions may differ.
How the values were obtained:
[1] = tested on: primary neuronal cultures; assay: IL-6 exposure of primary neuronal cultures: oxidized DHE, Nox2, parvalbumin and GAD67; type: cell-based, mouse
Description: IL-6 increases superoxide in a Nox dependent manner, and reduces GAD67 and parvalbumin in primary cultures, as summarized by the data graphically presented in FIG. 18. […] As before, dihydroethidium (DHE) was applied for the last hour (DHE detects superoxide and hydrogen peroxide). After fixation, ICC for PV and GAD67 was carried out as described in methods and quantitative confocal microscopy was utilized for fluorescence analysis.
DHE (1 μg/ml) was added during the last hour of treatment. Images show the increase in Nox2 immunoreactivity and oxidized DHE upon treatment with IL-6. Bar-graphs show the results of quantification of oxidized DHE and Nox2 fluorescence expressed as % of control. […] Data are means±SEM. Baseline intensities: DHE=21±4.7; Nox2=18.7±2.6.
Fluorescence confocal images of representative fields depicting the expression of parvalbumin (PV) and GAD67 in PV-interneurons. Bar-graph represents the quantification of fluorescence expressed as % of control. […] Data are means±SEM. Baseline intensities: PV=135±32; GAD67=114±26.
IL-6 potentiates ketamine effects on PV-interneurons. […] After fixation, ICC for GAD67 and parvalbumin was carried out as described by Kinney (2006) J. Neurosci. […] N=3 cultures per condition.

NADPH oxidase = target: T1, NADPH oxidase (Mus musculus, UniProt Q61093); assay: EPR superoxide production by forebrain synaptosomes exposed to IL-6; type: biochemical; details: IL-6 100 ng/ml, synaptosomes
T1 sequence (Q61093 1-570): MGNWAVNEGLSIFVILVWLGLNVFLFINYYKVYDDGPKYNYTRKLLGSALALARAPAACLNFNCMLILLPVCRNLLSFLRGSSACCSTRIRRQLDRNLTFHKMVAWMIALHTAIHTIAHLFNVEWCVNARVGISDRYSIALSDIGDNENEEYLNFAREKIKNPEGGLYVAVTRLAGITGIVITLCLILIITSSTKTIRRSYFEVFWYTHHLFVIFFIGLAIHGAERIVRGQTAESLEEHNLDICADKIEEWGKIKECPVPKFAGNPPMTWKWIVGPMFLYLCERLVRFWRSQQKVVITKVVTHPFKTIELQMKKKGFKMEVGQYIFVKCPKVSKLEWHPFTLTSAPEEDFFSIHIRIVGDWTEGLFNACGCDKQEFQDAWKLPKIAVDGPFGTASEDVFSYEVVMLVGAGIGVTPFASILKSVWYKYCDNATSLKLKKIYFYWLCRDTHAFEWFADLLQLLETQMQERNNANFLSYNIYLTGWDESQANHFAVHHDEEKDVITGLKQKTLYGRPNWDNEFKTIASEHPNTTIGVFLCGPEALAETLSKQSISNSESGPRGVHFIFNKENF
T1 sequence (Q61462 1-192 partner): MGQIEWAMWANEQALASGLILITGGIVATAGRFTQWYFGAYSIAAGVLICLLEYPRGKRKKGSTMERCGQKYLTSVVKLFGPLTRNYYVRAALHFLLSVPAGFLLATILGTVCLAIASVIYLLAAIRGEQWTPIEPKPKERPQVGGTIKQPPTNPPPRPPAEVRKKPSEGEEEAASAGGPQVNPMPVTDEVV

[2] = IL-6 i.p. in young and old mice: plasma IL-6 (ELISA) and tolerability; type: in vivo
Description: Plasma IL-6 is increased with aging or after intraperitoneal (i.p.) administration of IL-6, as illustrated by data shown in FIG. 44. […] IL-6 was assayed by ELISA (R&D Systems, Minneapolis, Minn.). Mice were then given a direct intraperitoneal (IP) injection of 3 μg/kg IL-6 on two consecutive days, and plasma IL-6 was assayed 16 hours (hr) after the last injection. […] Since the half-life of IL-6 in plasma is 4 hr, the sustained increase in IL-6 after injection may indicate induction of new IL-6 synthesis in young mice, which may be suppressed by the high endogenous IL-6 levels in old mice.

Jak2 = Jak2 phosphorylation in cortical neurons exposed to IL-6; type: cell-based, mouse; details: IL-6 20 ng/ml, 1 h, absence of astrocytes
Description: Exposure of cortical neurons to IL-6 (20 ng/ml, 1 h in the absence of astrocytes) increased the phosphorylation of the protein kinase Jak2, which transduces the signal from the activated IL-6 receptor, as illustrated by the data shown in FIG. 34A. […] Prolonged exposure (24 h) to the interleukin increased production of superoxide (as determined by DHE oxidation) and increased the expression of Nox2 in neurons, as illustrated by the data shown in FIG. 34B. The role of Nox2 activation in the increase in DHE oxidation was confirmed by co-exposure to the Nox inhibitor apocynin (0.5 mM) (FIG. 34B bottom panels).
For FIGS. 34A-34B: primary neuronal cultures were developed on coverslips as described Kinney et al., 2006, supra. After 21 days in culture, coverslips containing neurons were separated from the astrocytic monolayers, washed in HCSS and subjected to IL-6 treatment for 1 hour (FIG. 34A) or treated with IL-6 for 24 h on top of the astrocyte monolayer (FIG. 34B). After treatment, the coverslips were fixed in paraformaldehyde and processed for double fluorescence immuno-cytochemistry using the following antibodies: anti-GAD67 (1:2000, Chemicon. Red) anti-phospho-Jak2 (1:100, Cell Signaling. Green), and anti-Nox2 (1:300, monoclonal 54.1 Green). […] Secondary antibodies were conjugated to ALEXAFLUOR 488™ (green fluorescence) and ALEXAFLUOR 568™ (red fluorescence).

[3] = in vivo; cited from earlier work
Nox2 = assay: IL-6 i.p. on two consecutive days in mice: brain and synaptosomal Nox; details: IL-6 5 μg/kg i.p. on two consecutive days
[4] = tested on: primary neuronal cultures; assay: DHE oxidation (superoxide and/or hydrogen peroxide production) in primary neuronal cultures exposed to ketamine; type: cell-based, mouse
[5] = tested on: PV-interneurons in mouse prefrontal cortex; assay: two-day ketamine treatment of mice: oxidized DHE, parvalbumin and GAD67 in prefrontal cortex; type: in vivo; details: apocynin 5 mg/kg/day 1 week in drinking water; C3 1.0 mg/kg/day one month by mini-pumps
Description: Animals and treatments. […] Male C57BL6 mice were obtained from Jackson Labs, Bar Harbor, Me., at 8-12 weeks and housed in our facility until 15 weeks when they were used for experiments. Ketamine (30 mg/kg) was applied intraperitoneally (IP) on two consecutive days at around 4 pm. DHE was applied 30 min after the last ketamine injection as described (19, 20). Briefly, two serial i.p. injections of freshly prepared dihydroethidium (27 mg/kg) are given at 30 minute intervals. Eighteen hours later, mice are anesthetized with inhaled halothane, and perfused intracardially with cold saline followed by 4% paraformaldehyde in PBS. The Nox inhibitor, apocynin (5 mg/kg/day) was given in the drinking water for a total of seven days, with an assumed intake of […] H2O/mouse/day, and ketamine was applied on the last two days. […] All animal studies were approved by the Animal Care Program at the University of California, San Diego, and are in accordance the PHS Guide for the Care and Use of Laboratory Animals, USDA Regulations, and the AVMA Panel on Euthanasia.
Immunohistochemistry: Brains were frontally sliced in a vibratome into 50 μm coronal sections encompassing the prefrontal cortex region (from Bregma 2.0 to 1.3). Sequential slices were processed for floating-section double immunohistochemistry for the detection of parvalbumin and GAD67. Antigen retrieval was performed by incubation of the slices in 1% sodium borohydride for 15 min as described (see reference 34, below), followed by washing in PBS and incubation in 10% normal goat serum in PBS for 16 h at 4° C. Primary antibodies (Calbindin: 1:5000: Calretinin: 1:2000; Parvalbumin: 1:3000, all rabbit polyclonals from Swant, Bellinzona, Switzerland. GAD67: 1:1000, from Chemicon-Millipore, Temecula, Calif.) were diluted in 2% normal goat serum in PBS and applied to the slices for 18 h at 4° C., after which slices were washed in PBS and incubated in a 1:1000 dilution of ALEXAFLUOR™ (Molecular Probes, Invitrogen, Carlsbad, Calif.) conjugated goat anti-rabbit (568) or goat anti-mouse (488) antibodies for 1 hr at room temperature (rt). Slices were washed in PBS and mounted sequentially in glass slides using […]™ (Vector Laboratories, Burlingame, Calif.), covered with a coverslip and allowed to dry for at least 24 h before confocal imaging.
Six slices were analyzed per animal.
Analysis of superoxide and/or hydrogen peroxide production by confocal imaging of in vivo dihydroethidium (DHE) oxidation. Mice will be injected intraperitoneally (i.p.) with dihydroethidium.

[6] = tested on: pyramidal layer of CA1 in the aged hippocampus; assay: in vivo superoxide production in CA1 of the aged hippocampus (DHE confocal imaging); parameters: species or system mouse; details: old mice; C3 by oral administration; apocynin
Description: Analysis of superoxide and/or hydrogen peroxide production by confocal imaging of in vivo dihydroethidium (DHE) oxidation. Mice will be injected intraperitoneally (i.p.) with dihydroethidium. Briefly, two serial i.p. injections of freshly prepared dihydroethidium (27 mg/kg) are given at 30 minute intervals. Eighteen hours later, mice are anesthetized with inhaled halothane, and are perfused intracardially with cold saline followed by 4% paraformaldehyde in PBS. Brains are removed and post-fixed in 2% paraformaldehyde for >24 h. Following fixation, brains are cut into 50 μm coronal sections and co-labeled with the appropriate primary and secondary antibodies for fluorescence visualization. […] First, an image is taken in the fluorescence channel of the ICC-fluorophor and then the channel is switched to image fluorescence from DHE oxidation. […] Using the image pairs for each field and MetaMorph software, an analyst blind to the group circles the outline of each ICC-labeled cell and then switches to the DHE oxidation image. The average fluorescence intensity for each cell of interest is logged, and values averaged to determine the mean fluorescence/cell.

PV-interneurons [7] = assay: PV-interneuron counts in old mice after long-term SOD-mimetic treatment; type: in vivo, mouse; details: treatment of animals from middle age (OM+C3)
Description: Aging was accompanied by a statistically significant decrease in PV-interneuron number in all regions analyzed, as shown in FIG. 41B. […] Statistical significance was determined by ANOVA followed by Tukey's test.

PV-interneurons [8] = assay: parvalbumin and GAD67 immunoreactivity in PV-interneurons in primary neuronal cultures; details: co-exposure with ketamine 24 h; muscimol 10 μM, C3, apocynin 0.5 mM

IL-6: pro-inflammatory cytokine interleukin-6
immunoreactivity of GAD67 and parvalbumin in PV-interneurons ([1]; IL-6 10 ng/ml, 24 h): decreased
levels of DHE oxidation ([1]; IL-6 10 ng/ml, 24 h): increased
effect on parvalbumin and GAD67 immunoreactivity with sub-threshold ketamine ([1]; IL-6 10 ng/ml, ketamine, 24 h): increased the effects of ketamine
expression of Nox2 ([1]; IL-6, 24 hours): pronounced increase
superoxide production (EPR, DEPMPO) (NADPH oxidase): small but significant increase
plasma IL-6 16 hr after the last injection ([2]; 3 μg/kg IL-6 i.p. on two consecutive days): increased plasma IL-6 in young, but not old, mice
tolerability of higher doses ([2]; IL-6 12 μg/kg): induced the sickness response and generalized inflammatory reaction
phosphorylation of Jak2 (Jak2): increased
half-life in plasma [3]: 4 h
Nox activity in synaptosomal preparations (Nox2): significant induction

tris malonic acid C60 [C3]
effect on ketamine-mediated increase in ROS / free radical production (DHE fluorescence) [4]: prevented
effect on ketamine-mediated increase in oxidized DHE [4]: prevented
effect on ketamine-induced increase in oxidized DHE in vivo [5]: prevented
effect on ketamine-mediated loss of parvalbumin immunoreactivity in PV-interneurons in vivo [5]: completely prevented
effect on elevated levels of superoxide in the pyramidal layer of CA1 in the aged hippocampus [6]: prevented
effect on age-related reduction of PV-interneuron numbers (PV-interneurons [7]): prevented the reduction of PV-interneuron numbers in CA1 and CA3, but not in DG
effect on ketamine-mediated loss of parvalbumin and GAD67 immunoreactivity in PV-interneurons (PV-interneurons [8]): prevented; also recorded: attenuated

Source: US9944583B2, “Methods for ameliorating and preventing central nervous system inflammation” (THE REGENTS OF THE UNIVERSITY OF CALIFORNIA, priority 2007, dated 2018)
